The values below come from US20150206621A1, “Electrical Insulator Comprising An Organofluorine Compound And Method For Producing It” (priority 2012, published 2015).

Molecules are shown by their SMILES.

This series in a line: toxicity / lethal concentration LC50. The class given is in vivo.

As to `FC(F)(F)COC(F)(F)F` [2,2,2-trifluoroethyl-trifluoromethyl ether], the “risk for human toxicity (in words)” value (concluded from available results of mammalian HFC (hydrofluorocarbon) tests) was “low risk for human toxicity”.

For `O=C(C(F)(F)F)C(F)(C(F)(F)F)C(F)(F)F` [C5-ketone, 1,1,1,3,4,4,4-heptafluoro-3-(trifluoromethyl)butan-2-one], for the setting “in vivo”, the “toxicity (in words)” value is “practically non-toxic”.

Turning to `O=C(C(F)(F)C(F)(F)F)C(F)(C(F)(F)F)C(F)(F)F` [C6-ketone, 1,1,1,2,4,4,5,5,5-Nonafluoro-2-(trifluoromethyl)pentan-3-one], where the note is “in vivo”, the LC50 entry is given as “about 100'000 ppm” and the “toxicity (in words)” value is “non-toxic”.
